Consider ten compounds from PubChem BioAssay AID652152 (Johns Hopkins Ion Channel Center, 2013).

pIC50: −log10 of the molar value. The source made the active and inactive calls. How the calls were made is not given here.

In one test the target is Potassium voltage-gated channel subfamily KQT member 2 (Rattus norvegicus) (UniProt O88943). Put plainly: block of rat KCNQ2 potassium current – cell-based, automated electrophysiology, SAR follow-up (AID 652152). To be noted: KCNQ2-expressing cells, automated patch-clamp current. Background: Patch clamp records ionic current or voltage across a cell membrane.
Sequence of Potassium voltage-gated channel subfamily KQT member 2 (Rattus norvegicus) (O88943 whole entry, looked up): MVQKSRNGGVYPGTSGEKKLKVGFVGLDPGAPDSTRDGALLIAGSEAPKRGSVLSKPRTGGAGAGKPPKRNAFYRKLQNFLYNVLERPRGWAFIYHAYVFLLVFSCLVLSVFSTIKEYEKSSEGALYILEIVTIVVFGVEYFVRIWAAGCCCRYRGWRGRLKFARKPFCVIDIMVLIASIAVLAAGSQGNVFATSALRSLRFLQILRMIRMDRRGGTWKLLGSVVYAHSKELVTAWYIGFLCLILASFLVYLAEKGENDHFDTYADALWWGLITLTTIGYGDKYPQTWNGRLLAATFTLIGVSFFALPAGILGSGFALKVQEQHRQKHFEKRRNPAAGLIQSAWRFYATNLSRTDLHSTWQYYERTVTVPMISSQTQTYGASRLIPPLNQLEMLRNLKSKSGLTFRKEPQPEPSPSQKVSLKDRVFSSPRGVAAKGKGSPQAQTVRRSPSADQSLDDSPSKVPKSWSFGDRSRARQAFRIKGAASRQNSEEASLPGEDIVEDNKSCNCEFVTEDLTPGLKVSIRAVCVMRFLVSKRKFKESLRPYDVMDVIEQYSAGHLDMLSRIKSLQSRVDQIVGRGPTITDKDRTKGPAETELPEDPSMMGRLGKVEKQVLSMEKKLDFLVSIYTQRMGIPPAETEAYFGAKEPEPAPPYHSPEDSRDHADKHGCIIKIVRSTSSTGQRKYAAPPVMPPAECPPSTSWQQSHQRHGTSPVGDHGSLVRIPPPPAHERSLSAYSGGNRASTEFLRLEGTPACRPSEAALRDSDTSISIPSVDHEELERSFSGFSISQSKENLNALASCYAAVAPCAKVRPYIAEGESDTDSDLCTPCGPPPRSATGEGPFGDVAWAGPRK
Consider `CC[C@H](C(=O)Nc1ccc(N2CCC(F)(F)CC2)cc1)c1ccccc1`, for which the negative logarithm of the IC50 (pIC50) (in general, the negative decadic logarithm of the IC50, by convention in mol/L) is 6.12.

As for `CC[C@H](C(=O)Nc1ccccc1N1CC(c2ccc(Cl)cc2)C1)c1ccccc1`, the pIC50 was 6.05.

`CC[C@H](C(=O)Nc1ccccc1N1CC[C@H](F)C1)c1ccccc1`: the pIC50 is 6.68.

For `CC[C@H](C(=O)Nc1ccccc1N1CCC(F)(F)CC1)c1ccccc1`, the pIC50 is 5.55.

Take `CC[C@H](C(=O)Nc1ccc(N2CC[C@H](F)C2)cc1)c1ccccc1`: the negative-log IC50 (pIC50) is 6.92.

For the compound `CC[C@H](C(=O)Nc1ccccc1N1CCN(c2ccncc2C)CC1)c1ccccc1`, the pIC50 is 4.67.

The test is the same for the next values; noted with them: KCNQ2-expressing cells, automated patch-clamp current; at 30 µM (top of the series).
`CC[C@H](C(=O)Nc1ccc(N2CC(c3ccc(Cl)cc3)C2)cc1)c1ccccc1`: the inhibition entry is “inactive”.

With `CC[C@H](C(=O)Nc1ccc(N2CCN(c3cc(C(F)(F)F)ccn3)CC2)cc1)c1ccccc1`, the inhibition entry was “inactive”.

As to `CC[C@H](C(=O)Nc1ccc(N2CCCC(F)C2)cc1)c1ccccc1` (stereo not given in full), the inhibition entry was “inactive”.

As to `CC[C@H](C(=O)Nc1ccc(N2CCN(c3ccncc3C)CC2)cc1)c1ccccc1`, the inhibition entry is “inactive”.
